The data set can be described thus: Stability of ascorbic acid in water of adjusted pH (DPPH and HPLC). The settings on record: 5 ppm in 25° C. water. Type of data set: physicochemical. How it is done:
The free ascorbic-acid concentrations were measured immediately after they were prepared so that ascorbic acid was contained in an amount of 5 ppm in 25° C. water whose pH was adjusted to 1, 3, 4, 5, 7, 9 and 11, respectively, and after 24 hours. The free ascorbic acid concentrations were measured by the above-described DPPH radical elimination method and an HPLC method. The HPLC method uses an ODS as the column, and uses an ultraviolet spectrophotometer (wavelength 254 nm) as the detecting device to carry out the measurement. The results are illustrated in FIG. 12.

Take `O=C1O[C@H]([C@@H](O)CO)C(O)=C1O` [ascorbic acid]: under “24 hours”, the “pH at which ascorbic acid could be stabilized more” value is given as no more than 3 and the “pH boundary at or below which the stability of ascorbic acid improved” value is reported as roughly 5. Besides, the “stability of ascorbic acid versus pH (in words)” value (pH 1, 3, 4, 5, 7, 9, 11, immediately and after 24 hours (FIG. 12)) is listed as “the lower the pH was the more the stability of ascorbic acid improved”.

These data come from patent publication US20060039986A1, “Functional material, process for producing functional material and functional member and environment modifying apparatus using the functional material” (Kabushiki Kaisha Erubu, priority 2004, published 2006).
